Assay results published in patent publication US12448388B2, “PRMT5 inhibitors and uses thereof” (Gilead Sciences, Inc., priority 2023, dated 2025).

What follows are compounds tested on HCT116 MTAP-deleted cell lines (assay: Cell viability assay (CellTiter-Glo, 7 days), HCT116 MTAP-deleted). Settings: Homo sapiens, HCT-116; cell viability, HCT116 MTAP-deleted; class symbols; read-out: CC50.
Format: cell-based
Method in brief: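 CC50 values come from 7-day CellTiter-Glo viability measurements on cells exposed to a dose range of PRMT5 inhibitors dispensed from DMSO stocks.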

| SMILES | CC50 [nM] |
| --- | --- |
| Nc1nc2cnc(C(=O)N3CCC[C@@H]4Oc5cc(C(F)(F)F)c(Cl)cc5[C@@H]43)cc2n2cncc12 [Ff-259, (4-aminoimidazo[1,5-a]pyrido[3,4-e]pyrazin-8-yl)((4aS,9bS)-8-chloro-7-(trifluoromethyl)-3,4,4a,9b-tetrahydrobenzofuro[3,2-b]pyridin-1(2H)-yl)methanone] | < 100 |
| Nc1nc2cc(F)c(C(=O)N3CCC[C@@H]4Oc5cc(Cl)ccc5[C@@H]43)cc2n2cncc12 [Ff-260, (4-amino-7-fluoroimidazo[1,5-a]quinoxalin-8-yl)((4aS,9bS)-7-chloro-3,4,4a,9b-tetrahydrobenzofuro[3,2-b]pyridin-1(2H)-yl)methanone] | < 100 |
| C[C@@H]1C[C@@H]2Oc3cc(C(F)(F)F)c(F)cc3[C@@H]2N(C(=O)c2cc3c(cn2)nc(N)c2cncn23)C1 [Ff-261, (4-aminoimidazo[1,5-a]pyrido[3,4-e]pyrazin-8-yl)((3R,4aS,9bS)-8-fluoro-3-methyl-7-(trifluoromethyl)-3,4,4a,9b-tetrahydrobenzofuro[3,2-b]pyridin-1(2H)-yl)methanone] | < 100 |
| Nc1nc2ccc(C(=O)N(Cc3ccc(OC(F)F)cc3F)C34CC(C3)C4)cc2n2cncc12 [Ff-264, 4-amino-N-(bicyclo[1.1.1]pentan-1-yl)-N-(4-(difluoromethoxy)-2-fluorobenzyl)imidazo[1,5-a]quinoxaline-8-carboxamide] | 100 to 1000 |
| Nc1nc2cc(F)c(C(=O)N(Cc3ccc(OC(F)F)cc3F)C34CC(C3)C4)cc2n2cncc12 [Ff-265, 4-amino-N-(bicyclo[1.1.1]pentan-1-yl)-N-(4-(difluoromethoxy)-2-fluorobenzyl)-7-fluoroimidazo[1,5-a]quinoxaline-8-carboxamide] | < 100 |
| CN(C(=O)c1ccc2nc(N)c3cncn3c2c1)C1CCc2nc(C(F)(F)F)ccc21 (stereo not drawn) [Ff-266, 4-amino-N-methyl-N-(2-(trifluoromethyl)-6,7-dihydro-5H-cyclopenta[b]pyridin-5-yl)imidazo[1,5-a]quinoxaline-8-carboxamide] | 100 to 1000 |
| Nc1nc2ccc(C(=O)N(Cc3ccc(C(F)(F)F)cn3)C34COC(C3)C4)cc2n2cncc12 [Ff-267, 4-amino-N-(2-oxabicyclo[2.1.1]hexan-4-yl)-N-((5-(trifluoromethyl)pyridin-2-yl)methyl)imidazo[1,5-a]quinoxaline-8-carboxamide] | 100 to 1000 |
| Nc1nc2cc(F)c(C(=O)N(Cc3ccc(C(F)(F)F)cn3)C34COC(C3)C4)cc2n2cncc12 [Ff-268, 4-amino-N-(2-oxabicyclo[2.1.1]hexan-4-yl)-7-fluoro-N-((5-(trifluoromethyl)pyridin-2-yl)methyl)imidazo[1,5-a]quinoxaline-8-carboxamide] | < 100 |
| CN(C(=O)c1cc2c(cc1F)nc(N)c1cncn12)[C@@H]1COc2cc(C#N)ccc21 [Ff-269, (S)-4-amino-N-(6-cyano-2,3-dihydrobenzofuran-3-yl)-7-fluoro-N-methylimidazo[1,5-a]quinoxaline-8-carboxamide] | < 100 |
| CC1(N(Cc2ccc(C(F)(F)F)cc2F)C(=O)c2ccc3nc(N)c4cncn4c3c2)COC1 [Ff-270, 4-amino-N-(2-fluoro-4-(trifluoromethyl)benzyl)-N-(3-methyloxetan-3-yl)imidazo[1,5-a]quinoxaline-8-carboxamide] | 100 to 1000 |
| COc1ccc2c(n1)CCC2N(C)C(=O)c1cc2c(cc1F)nc(N)c1cncn12 (stereo not drawn) [Ff-271, 4-amino-7-fluoro-N-(2-methoxy-6,7-dihydro-5H-cyclopenta[b]pyridin-5-yl)-N-methylimidazo[1,5-a]quinoxaline-8-carboxamide] | 100 to 1000 |
| Nc1nc2cc(F)c(C(=O)N(Cc3ccc(C(F)(F)F)cc3F)C34COC(C3)C4)cc2n2cncc12 [Ff-272, 4-amino-N-(2-oxabicyclo[2.1.1]hexan-4-yl)-7-fluoro-N-(2-fluoro-4-(trifluoromethyl)benzyl)imidazo[1,5-a]quinoxaline-8-carboxamide] | < 100 |
| CO[C@@H]1COCC[C@H]1N(Cc1ccc(C(F)(F)F)cc1F)C(=O)c1cc2c(cc1F)nc(N)c1cncn12 [Ff-273, 4-amino-7-fluoro-N-(2-fluoro-4-(trifluoromethyl)benzyl)-N-((3S,4R)-3-methoxytetrahydro-2H-pyran-4-yl)imidazo[1,5-a]quinoxaline-8-carboxamide] | < 100 |
| CO[C@H]1COCC[C@H]1N(Cc1ccc(C(F)(F)F)cc1F)C(=O)c1cc2c(cc1F)nc(N)c1cncn12 [Ff-274, 4-amino-7-fluoro-N-(2-fluoro-4-(trifluoromethyl)benzyl)-N-((3R,4R)-3-methoxytetrahydro-2H-pyran-4-yl)imidazo[1,5-a]quinoxaline-8-carboxamide] | < 100 |
| CN(C(=O)c1cc2c(cc1F)nc(N)c1cncn12)C1COCc2nc(Br)ccc21 (stereo not drawn) [Ff-275, 4-amino-N-(2-bromo-5,8-dihydro-6H-pyrano[3,4-b]pyridin-5-yl)-7-fluoro-N-methylimidazo[1,5-a]quinoxaline-8-carboxamide] | < 100 |
| Nc1nc2cc(F)c(C(=O)N(Cc3ccc(C(F)(F)F)cc3F)c3cnn(C4CC4)c3)cc2n2cncc12 [Ff-276, 4-amino-N-(1-cyclopropyl-1H-pyrazol-4-yl)-7-fluoro-N-(2-fluoro-4-(trifluoromethyl)benzyl)imidazo[1,5-a]quinoxaline-8-carboxamide] | < 100 |
| Nc1nc2cc(F)c(C(=O)N(Cc3ccc(C(F)(F)F)cn3)c3ccccc3)cc2n2cncc12 [Ff-277, 4-amino-7-fluoro-N-phenyl-N-((5-(trifluoromethyl)pyridin-2-yl)methyl)imidazo[1,5-a]quinoxaline-8-carboxamide] | < 100 |
| CN(C(=O)c1cc2c(cc1F)nc(N)c1cncn12)[C@@H]1COCc2nc(C(F)(F)F)ccc21 [Ff-281, (S)-4-amino-7-fluoro-N-methyl-N-(2-(trifluoromethyl)-5,8-dihydro-6H-pyrano[3,4-b]pyridin-5-yl)imidazo[1,5-a]quinoxaline-8-carboxamide] | < 100 |
| CN(C(=O)c1cc2c(cc1F)nc(N)c1cncn12)[C@H]1COCc2nc(C(F)(F)F)ccc21 [Ff-282, (R)-4-amino-7-fluoro-N-methyl-N-(2-(trifluoromethyl)-5,8-dihydro-6H-pyrano[3,4-b]pyridin-5-yl)imidazo[1,5-a]quinoxaline-8-carboxamide] | 100 to 1000 |
| Nc1nc2cc(F)c(C(=O)N(Cc3ccc(C(F)(F)F)cc3F)c3cnn4c3CCC4)cc2n2cncc12 [Ff-285, 4-amino-N-(5,6-dihydro-4H-pyrrolo[1,2-b]pyrazol-3-yl)-7-fluoro-N-(2-fluoro-4-(trifluoromethyl)benzyl)imidazo[1,5-a]quinoxaline-8-carboxamide] | < 100 |
| Cn1ccc(N(Cc2ccc(C(F)(F)F)cc2F)C(=O)c2cc3c(cc2F)nc(N)c2cncn23)n1 [Ff-286, 4-amino-7-fluoro-N-(2-fluoro-4-(trifluoromethyl)benzyl)-N-(1-methyl-1H-pyrazol-3-yl)imidazo[1,5-a]quinoxaline-8-carboxamide] | < 100 |
| Cn1cc(N(Cc2ncc(C(F)(F)F)cc2F)C(=O)c2cc3c(cc2F)nc(N)c2cncn23)cn1 [Ff-290, 4-amino-7-fluoro-N-((3-fluoro-5-(trifluoromethyl)pyridin-2-yl)methyl)-N-(1-methyl-1H-pyrazol-4-yl)imidazo[1,5-a]quinoxaline-8-carboxamide] | < 100 |
| Nc1nc2cc(F)c(C(=O)N(Cc3ccc(C(F)(F)F)cc3F)c3cnn(C(F)F)c3)cc2n2cncc12 [Ff-291, 4-amino-N-(1-(difluoromethyl)-1H-pyrazol-4-yl)-7-fluoro-N-(2-fluoro-4-(trifluoromethyl)benzyl)imidazo[1,5-a]quinoxaline-8-carboxamide] | < 100 |
| CN(C(=O)c1cc2c(cc1F)nc(N)c1cncn12)[C@@H]1COCc2cc(-c3cnn(C(F)F)c3)ccc21 [Ff-292, (S)-4-amino-7-fluoro-N-methyl-N-(7-(1-(difluoromethyl)-1H-pyrazol-4-yl)isochroman-4-yl)imidazo[1,5-a]quinoxaline-8-carboxamide] | < 100 |
| CN(C(=O)c1ccc2nc(N)c3cncn3c2c1)[C@@H]1COCc2nc(C(F)(F)F)ccc21 [Ff-302, (S)-4-amino-N-methyl-N-(2-(trifluoromethyl)-5,8-dihydro-6H-pyrano[3,4-b]pyridin-5-yl)imidazo[1,5-a]quinoxaline-8-carboxamide] | < 100 |
| Cc1ncn2c1c(N)nc1cc(F)c(C(=O)N(C)[C@@H]3COCc4nc(C(F)(F)F)ccc43)cc12 [Ff-303, (S)-4-amino-7-fluoro-N,3-dimethyl-N-(2-(trifluoromethyl)-5,8-dihydro-6H-pyrano[3,4-b]pyridin-5-yl)imidazo[1,5-a]quinoxaline-8-carboxamide] | < 100 |
| Cc1ncn2c1c(N)nc1cc(F)c(C(=O)N(C)[C@@H]3COc4cc(C(F)(F)F)ccc43)cc12 [Ff-305, (S)-4-amino-7-fluoro-N,3-dimethyl-N-(6-(trifluoromethyl)-2,3-dihydrobenzofuran-3-yl)imidazo[1,5-a]quinoxaline-8-carboxamide] | < 100 |
| Cn1ccc(N(Cc2ccc(C(F)(F)F)cn2)C(=O)c2cc3c(cc2F)nc(N)c2cncn23)n1 [Ff-306, 4-amino-7-fluoro-N-(1-methyl-1H-pyrazol-3-yl)-N-((5-(trifluoromethyl)pyridin-2-yl)methyl)imidazo[1,5-a]quinoxaline-8-carboxamide] | < 100 |
| Cn1ccc(N(Cc2ncc(C(F)(F)F)cc2F)C(=O)c2cc3c(cc2F)nc(N)c2cncn23)n1 [Ff-307, 4-amino-7-fluoro-N-((3-fluoro-5-(trifluoromethyl)pyridin-2-yl)methyl)-N-(1-methyl-1H-pyrazol-3-yl)imidazo[1,5-a]quinoxaline-8-carboxamide] | < 100 |
| CN(C(=O)c1cc2c(cc1Cl)nc(N)c1cncn12)[C@@H]1COCc2nc(C(F)(F)F)ccc21 [Ff-308, (S)-4-amino-7-chloro-N-methyl-N-(2-(trifluoromethyl)-5,8-dihydro-6H-pyrano[3,4-b]pyridin-5-yl)imidazo[1,5-a]quinoxaline-8-carboxamide] | < 100 |
